ChEMBL document CHEMBL5244229, “Thiazole-containing compounds as therapeutic targets for cancer therapy” (Eur J Med Chem, 2020)
≈ marks a conversion by molar mass, not a printed value.

Tests used:
Enterobacter cloacae = assay: Inhibition of Enterobacter cloacae Metallo-beta-lactamase IMP-1
MDA-MB-231 = assay: Cytotoxicity against human MDA-MB-231 cells assessed as inhibition of cell growth incubated for 48 hrs by MTT assay; format: functional, cell-based; conditions: MDA-MB-231, 48 h
[1] = biological target: Vascular endothelial growth factor receptor 2 (Homo sapiens) (UniProt P35968); assay: Inhibition of VEGFR2 (unknown origin) at 20 uM using 5-FAM-KKKKEEIYFFF-CONH2 as substrate incubated for 1 hr in presence of ATP by kinase glo-assay relative to control
Sequence of Vascular endothelial growth factor receptor 2 (Homo sapiens) (P35968 whole entry): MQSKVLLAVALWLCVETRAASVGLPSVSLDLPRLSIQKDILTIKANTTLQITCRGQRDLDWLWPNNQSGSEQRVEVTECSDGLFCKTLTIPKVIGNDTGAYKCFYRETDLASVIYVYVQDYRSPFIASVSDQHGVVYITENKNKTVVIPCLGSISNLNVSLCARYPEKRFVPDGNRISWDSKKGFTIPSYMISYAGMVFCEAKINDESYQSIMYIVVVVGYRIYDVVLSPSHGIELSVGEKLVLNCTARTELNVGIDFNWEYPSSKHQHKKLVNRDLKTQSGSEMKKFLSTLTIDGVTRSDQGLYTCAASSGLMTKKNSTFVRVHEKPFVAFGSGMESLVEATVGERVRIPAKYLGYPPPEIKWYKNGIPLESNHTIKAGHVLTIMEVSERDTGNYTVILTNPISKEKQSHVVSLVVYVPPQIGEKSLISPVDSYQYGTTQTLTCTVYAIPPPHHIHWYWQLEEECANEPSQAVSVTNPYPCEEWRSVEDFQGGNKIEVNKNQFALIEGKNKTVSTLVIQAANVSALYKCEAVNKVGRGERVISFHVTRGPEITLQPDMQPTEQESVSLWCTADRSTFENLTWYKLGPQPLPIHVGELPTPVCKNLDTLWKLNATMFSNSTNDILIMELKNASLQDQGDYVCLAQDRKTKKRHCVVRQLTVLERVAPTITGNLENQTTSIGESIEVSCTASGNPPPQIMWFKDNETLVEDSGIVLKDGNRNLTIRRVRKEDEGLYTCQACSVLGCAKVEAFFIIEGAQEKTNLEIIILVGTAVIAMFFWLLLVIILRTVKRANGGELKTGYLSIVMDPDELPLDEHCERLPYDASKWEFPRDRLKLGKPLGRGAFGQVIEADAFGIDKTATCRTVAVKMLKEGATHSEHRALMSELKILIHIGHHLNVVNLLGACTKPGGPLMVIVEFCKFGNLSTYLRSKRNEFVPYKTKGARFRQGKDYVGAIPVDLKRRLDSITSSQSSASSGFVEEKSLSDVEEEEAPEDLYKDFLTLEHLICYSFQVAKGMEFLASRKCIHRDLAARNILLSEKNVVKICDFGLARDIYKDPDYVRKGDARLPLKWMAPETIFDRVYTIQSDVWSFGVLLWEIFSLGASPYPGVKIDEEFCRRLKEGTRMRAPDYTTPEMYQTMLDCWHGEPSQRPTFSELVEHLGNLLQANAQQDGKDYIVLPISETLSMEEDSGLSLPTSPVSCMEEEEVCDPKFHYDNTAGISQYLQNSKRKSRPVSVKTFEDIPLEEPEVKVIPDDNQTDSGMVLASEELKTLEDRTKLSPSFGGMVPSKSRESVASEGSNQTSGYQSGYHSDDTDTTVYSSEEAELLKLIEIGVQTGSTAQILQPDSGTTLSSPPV

HepG2 [2] = assay: Cytotoxicity against human HepG2 cells assessed as inhibition of cell growth incubated for 48 hrs by MTT assay; format: functional, cell-based; conditions: HepG2, 48 h
MCF7 [3] = assay: Induction of apoptosis in human MCF7 cells assessed as dead cells at 10 uM measured after 6 hrs by annexin V-FITC/propidium iodide staining based flow cytometry analysis (reference value: 5.14+/-0.44%); format: functional
HepG2 [4] = assay: Cytotoxicity against human HepG2 cells assessed as reduction in cell viability at 200 uM incubated for 24 hrs by MTT assay; format: functional, cell-based; conditions: HepG2, 24 h
[5] = Anticancer activity against human Colon carcinoma cell; format: functional
Ovarian carcinoma cell = assay: Anticancer activity against human Ovarian carcinoma cell; format: functional
[6] = Anticancer activity against human Melanoma tumor cell line; format: functional
[7] = Cytotoxicity against human HPDE cells assessed as induction of cell death at 5.51 uM; format: functional
NCI-H460 = assay: Cytotoxicity against human NCI-H460 cells assessed as inhibition of cell growth; format: functional
MCF7 [8] = assay: Cytotoxicity against human MCF7 cells assessed as inhibition of cell growth; format: functional
SF-268 = assay: Cytotoxicity against human SF-268 cells assessed as inhibition of cell growth; format: functional
A549 [9] = assay: Antiproliferative activity against human A549 cells assessed as reduction in cell viability; format: functional, cell-based
C6 [10] = assay: Induction of apoptosis in rat C6 cells assessed as early apoptotic cells for 24 hrs by FITC-annexin V/PI based flow cytometry; format: functional
C6 [11] = assay: Inhibition of Akt in rat C6 cells measured after 30 mins by ELISA analysis; format: cell-based
A549 [12] = assay: Induction of apoptosis in human A549 cells assessed as late apoptotic cells for 24 hrs by FITC-annexin V/PI based flow cytometry; format: functional
A549 [13] = assay: Induction of apoptosis in human A549 cells assessed as early apoptotic cells for 24 hrs by FITC-annexin V/PI based flow cytometry; format: functional
C6 [14] = assay: Induction of apoptosis in rat C6 cells assessed as late apoptotic cells for 24 hrs by FITC-annexin V/PI based flow cytometry; format: functional
HepG2 [15] = assay: Cytotoxicity against human HepG2 cells assessed as reduction in cell viability at 200 uM incubated for 48 hrs by MTT assay; format: functional
[16] = Anticancer activity against human PBMC cells; format: functional, cell-based
Colon 26 [17] = assay: Antitumor activity against mouse Colon 26 cells xenografted in mouse assessed as tumor suppression rate at 40 mg/kg, po; format: functional
Tubulin = Tubulin (Bos taurus, UniProt Q6B856+Q862L2+Q862F3); assay: Antitubulin activity against bovine brain tubulin polymerization by spectrophotometric method
Colon 26 [18] = assay: Cytotoxicity against mouse Colon 26 cells assessed as inhibition of cell growth; format: functional, cell-based
A549 [19] = assay: Cytotoxicity against human A549 cells assessed as inhibition of cell growth by MTT assay; format: functional, cell-based
HCT-116 [20] = assay: Anticancer activity against human HCT-116 cells; format: functional, cell-based
MV4-11 [21] = assay: Antiproliferative activity against human MV4-11 cells assessed as reduction in cell viability incubated for 24 hrs by Celltiter-Glo cell viability assay; format: functional, cell-based; conditions: MV4-11, 24 h
MV4-11 [22] = assay: Anticancer activity against human MV4-11 cells; format: functional, cell-based
HCT-116 [23] = assay: Antiproliferative activity against human HCT-116 cells assessed as reduction in cell viability incubated for 24 hrs by Celltiter-Glo cell viability assay; format: functional, cell-based; conditions: HCT-116, 24 h
MCF7 [24] = assay: Antiproliferative activity against human MCF7 cells assessed as reduction in cell viability incubated for 24 hrs by Celltiter-Glo cell viability assay; format: functional, cell-based; conditions: MCF7, 24 h
BALB/3T3 = assay: Antiproliferative activity against mouse BALB/3T3 cells assessed as reduction in cell viability incubated for 24 hrs by Celltiter-Glo cell viability assay; format: functional, cell-based; conditions: BALB/3T3, 24 h
HCT-8 = assay: Anticancer activity against human HCT-8 cells at 5 microg/ml relative to control; format: functional; conditions: dose 5 µg/ml
A549 [25] = assay: Antiproliferative activity against human A549 cells relative to control; format: functional
[26] = Antiproliferative activity against human HLF cells; format: functional
A549 [27] = assay: Antiproliferative activity against human A549 cells; format: functional, cell-based
HCT-116 [28] = assay: Antiproliferative activity against human HCT-116 cells assessed as reduction in cell viability; format: functional, cell-based
HEK293 = assay: Antiproliferative activity against human HEK293 cells; format: functional
[29] = biological target: Nuclear factor NF-kappa-B complex (Homo sapiens) (UniProt Q00653+P19838+Q04206); assay: Inhibition of NF-kB (unknown origin); format: protein-complex assay
Sequence of Nuclear factor NF-kappa-B complex (Homo sapiens) (P19838 whole entry, looked up): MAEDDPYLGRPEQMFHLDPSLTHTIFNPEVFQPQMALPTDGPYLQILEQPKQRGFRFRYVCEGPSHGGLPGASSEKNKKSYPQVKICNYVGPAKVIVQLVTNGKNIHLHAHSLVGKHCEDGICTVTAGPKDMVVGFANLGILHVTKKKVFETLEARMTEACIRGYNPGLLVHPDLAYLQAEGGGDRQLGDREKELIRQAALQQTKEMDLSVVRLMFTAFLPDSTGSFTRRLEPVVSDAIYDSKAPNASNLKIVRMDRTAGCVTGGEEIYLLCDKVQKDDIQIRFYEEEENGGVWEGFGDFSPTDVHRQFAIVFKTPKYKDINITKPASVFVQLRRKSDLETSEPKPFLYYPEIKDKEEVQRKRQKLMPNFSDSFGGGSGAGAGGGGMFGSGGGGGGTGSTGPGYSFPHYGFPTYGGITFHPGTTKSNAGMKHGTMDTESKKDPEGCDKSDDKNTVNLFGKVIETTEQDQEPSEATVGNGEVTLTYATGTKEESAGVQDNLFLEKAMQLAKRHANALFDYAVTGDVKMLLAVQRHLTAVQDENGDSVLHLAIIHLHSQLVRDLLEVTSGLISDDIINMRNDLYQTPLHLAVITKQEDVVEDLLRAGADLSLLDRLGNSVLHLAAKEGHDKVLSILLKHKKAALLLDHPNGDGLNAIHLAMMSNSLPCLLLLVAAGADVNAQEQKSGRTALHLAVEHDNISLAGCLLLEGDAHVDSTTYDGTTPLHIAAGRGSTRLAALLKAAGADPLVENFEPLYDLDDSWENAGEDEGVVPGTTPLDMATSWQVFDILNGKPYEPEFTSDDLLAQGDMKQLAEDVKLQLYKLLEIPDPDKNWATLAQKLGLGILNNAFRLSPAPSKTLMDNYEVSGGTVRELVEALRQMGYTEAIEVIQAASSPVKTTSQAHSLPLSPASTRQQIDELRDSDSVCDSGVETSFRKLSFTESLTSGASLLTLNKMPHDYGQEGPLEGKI
Sequence of Nuclear factor NF-kappa-B complex (Homo sapiens) (Q00653 whole entry, looked up): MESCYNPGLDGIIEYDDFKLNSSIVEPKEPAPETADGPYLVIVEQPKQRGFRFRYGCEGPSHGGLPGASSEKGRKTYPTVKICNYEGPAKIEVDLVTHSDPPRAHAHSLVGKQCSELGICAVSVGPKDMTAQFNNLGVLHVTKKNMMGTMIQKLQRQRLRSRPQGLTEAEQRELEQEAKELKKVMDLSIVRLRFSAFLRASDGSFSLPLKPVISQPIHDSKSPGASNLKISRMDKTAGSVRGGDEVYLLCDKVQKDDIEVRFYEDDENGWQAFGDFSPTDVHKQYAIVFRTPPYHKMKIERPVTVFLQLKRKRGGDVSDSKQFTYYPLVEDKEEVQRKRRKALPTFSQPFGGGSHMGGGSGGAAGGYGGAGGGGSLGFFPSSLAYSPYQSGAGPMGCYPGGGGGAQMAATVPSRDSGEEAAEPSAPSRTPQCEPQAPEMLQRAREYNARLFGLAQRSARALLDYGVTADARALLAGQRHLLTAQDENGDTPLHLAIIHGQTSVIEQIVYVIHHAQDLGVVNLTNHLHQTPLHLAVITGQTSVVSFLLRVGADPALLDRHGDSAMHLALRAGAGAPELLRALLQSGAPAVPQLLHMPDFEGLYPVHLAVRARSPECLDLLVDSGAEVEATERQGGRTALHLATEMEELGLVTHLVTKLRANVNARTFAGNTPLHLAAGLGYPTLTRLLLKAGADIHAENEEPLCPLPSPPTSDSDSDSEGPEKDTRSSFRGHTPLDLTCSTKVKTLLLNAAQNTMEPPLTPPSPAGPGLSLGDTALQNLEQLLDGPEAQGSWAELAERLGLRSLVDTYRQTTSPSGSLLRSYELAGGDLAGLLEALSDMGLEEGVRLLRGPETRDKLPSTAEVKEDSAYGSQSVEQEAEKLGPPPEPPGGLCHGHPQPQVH
Sequence of Nuclear factor NF-kappa-B complex (Homo sapiens) (Q04206 whole entry, looked up): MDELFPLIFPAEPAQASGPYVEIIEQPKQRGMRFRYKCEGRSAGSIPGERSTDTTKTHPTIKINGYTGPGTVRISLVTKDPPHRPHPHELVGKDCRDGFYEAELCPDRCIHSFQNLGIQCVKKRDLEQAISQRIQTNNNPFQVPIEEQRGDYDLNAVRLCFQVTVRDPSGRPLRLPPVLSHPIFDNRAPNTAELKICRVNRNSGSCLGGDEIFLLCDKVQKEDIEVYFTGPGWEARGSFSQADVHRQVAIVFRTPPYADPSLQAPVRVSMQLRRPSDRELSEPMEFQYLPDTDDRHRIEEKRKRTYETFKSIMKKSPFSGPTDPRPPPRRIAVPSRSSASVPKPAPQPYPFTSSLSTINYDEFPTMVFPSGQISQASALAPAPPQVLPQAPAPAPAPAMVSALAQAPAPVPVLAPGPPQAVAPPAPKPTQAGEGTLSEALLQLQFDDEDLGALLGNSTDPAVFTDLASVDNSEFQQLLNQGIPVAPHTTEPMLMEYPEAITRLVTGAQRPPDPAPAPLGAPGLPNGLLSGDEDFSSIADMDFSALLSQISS

## C[C@@]1(O)[C@@H](COP(=O)(O)OP(=O)(O)OC[C@H]2O[C@@H](c3nc(C(N)=O)cs3)[C@H](O)[C@@H]2O)O[C@@H](n2cnc3c(N)ncnc32)[C@@H]1O
Enterobacter cloacae
  IC: 0.52 µM

## COc1ccc(CN2CCN(c3ccc(NC(=O)Cc4csc5nc(-c6ccc(Cl)cc6)cn45)cn3)CC2)cc1
MDA-MB-231
  IC50: 1400 nM
[1]
  inhibition: 5.72%
HepG2 [2]
  IC50: 22600 nM

## COc1ccc(-c2nn(-c3ccccc3)cc2/C=N/Nc2nc(-c3ccc(Cl)cc3)cs2)cc1
MCF7 [3]
  Activity: 25.61%

## c1ccc2cc(-c3csc(N4CCCC4)n3)ccc2c1
HepG2 [4]
  IC50: 5000 nM

## Cc1nn2c(SCC(=O)Nc3nccs3)nc3ccccc3c2nc1=O
[5]
  GI50: 450 nM
Ovarian carcinoma cell
  GI50: 250 nM
[6]
  GI50: 480 nM

## C/C(=N/Nc1nc(-c2cc3ccccc3oc2=O)cs1)c1cc2ccccc2oc1=O
[7]
  Activity: 50%

## C/C(=N/NC(=O)c1sc(=S)n(-c2ccccc2)c1N)c1cccnc1
NCI-H460
  GI50: 94 nM
MCF7 [8]
  GI50: 42.8 nM
SF-268
  GI50: 94 nM

## COc1ccc(-c2csc(Nc3ccc(OC)cc3OC)n2)cc1
A549 [9]
  IC50: 860 nM

## N#Cc1ccc(Oc2ccc(/C=N/Nc3nc(-c4ccc(C#N)cc4)cs3)cc2)cc1
C6 [10]
  Activity: 4.6%
C6 [11]
  inhibition: 71.7%
A549 [12]
  Activity: 36.5%
A549 [13]
  Activity: 2.3%
C6 [14]
  Activity: 28.2%

## CC1CCN(c2nc(-c3ccc4ccccc4c3)cs2)CC1
HepG2 [15]
  Activity: 57%

## C/C(=N\Nc1nc(-c2ccc(Cl)cc2)cs1)c1ccccn1
[16]
  IC50: > 30000 nM

## COc1ccc(C2SC(N)=NC2c2cc(OC)c(OC)c(OC)c2)cc1N (stereo not drawn)
Colon 26 [17]
  Activity: 75%
Tubulin
  IC50: 1000 nM
Colon 26 [18]
  IC50: 57.5 nM

## COC(=O)Nc1nc2cc(C(=O)c3cccs3)ccc2[nH]1 [NOCODAZOLE]
A549 [19]
  IC50: 1810 nM

## O=S(=O)(Nc1ccc(-c2csc(N/N=C/c3ccc(N(CCCl)CCCl)cc3)n2)cc1)c1c(F)c(F)c(F)c(F)c1F
HCT-116 [20]
  IC50: 3.02 µg/mL (≈ 4.54 µM)
MV4-11 [21]
  IC50: 2.17 µg/mL (≈ 3.27 µM)
MV4-11 [22]
  IC50: 2170 nM
HCT-116 [23]
  IC50: 3.02 µg/mL (≈ 4.54 µM)
MCF7 [24]
  IC50: 3.42 µg/mL (≈ 5.15 µM)
BALB/3T3
  IC50: 3.2 µg/mL (≈ 4.82 µM)

## Cc1cc(Cl)ccc1NC(=O)c1sc(-c2ccccc2Cl)nc1C(F)(F)F
HCT-8
  Activity: 40%
A549 [25]
  Activity: 48%

## CCCCCCCC(=O)SCC/C=C/[C@@H]1CC(=O)NCc2nc(cs2)C2=N[C@@](C)(CS2)C(=O)N[C@@H](c2ccc(O)cc2)C(=O)O1
[26]
  GI50: > 100000 nM
A549 [27]
  GI50: 1460 nM
HCT-116 [28]
  IC50: 390 nM
HEK293
  GI50: > 100000 nM

## CNc1nc(C)c(-c2nc3ccccc3c(=O)n2-c2ccc(Cl)cc2)s1
[29]
  IC: 3.3 µM
